From US8927559B2, “Quinazolinone-type compounds as CRTH2 antagonists” (Merck Sharp & Dohme Corp., priority 2010, dated 2015)
Several values for one entry are separate records, joined by “and”; a condition that tells them apart may be missing. Identical values can stand only once.

Biological target: T1, CRTH2 receptor (hCRTH2) (Homo sapiens, UniProt Q9Y5Y4)
T1 construct: expressed in transfected cells; host or cells: HEK cells (HEK-hCRTH2 cell line), membranes
T1 sequence (Q9Y5Y4 1-395): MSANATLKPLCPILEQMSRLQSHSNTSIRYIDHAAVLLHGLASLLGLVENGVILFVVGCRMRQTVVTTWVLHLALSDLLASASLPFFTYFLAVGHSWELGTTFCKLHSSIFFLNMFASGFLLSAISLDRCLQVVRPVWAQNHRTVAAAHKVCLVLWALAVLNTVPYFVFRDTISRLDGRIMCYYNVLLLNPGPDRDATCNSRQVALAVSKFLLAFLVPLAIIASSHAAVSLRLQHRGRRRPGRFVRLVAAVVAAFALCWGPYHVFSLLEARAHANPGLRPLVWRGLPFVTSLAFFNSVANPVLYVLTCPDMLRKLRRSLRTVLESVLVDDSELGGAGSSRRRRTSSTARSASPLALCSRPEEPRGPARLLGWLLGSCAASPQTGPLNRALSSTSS
Experiment: Radioligand binding assay ([3H]PGD2 competition, membranes of HEK-hCRTH2 cell line)
Conditions: 3.0 nM [3H]PGD2, HEK-hCRTH2 membranes, 60 min, room temperature; read-out: Ki
Procedure: Competing ligands were diluted in dimethylsulfoxide (Me2SO) that was kept constant at 1% (v/v) of the final incubation volume. The reaction was initiated by the addition of 8-20 μg of membrane protein prepared from a HEK-hCRTH2 cell line. Total and non-specific binding were determined in the absence and the presence of […] PGD2, respectively. […] The reaction was routinely conducted for 60 min at room temperature and terminated by rapid filtration through prewetted (0.3% polyethyleneimine) 96-well printed filtermate (Wallac) using a Tomtec harvester. After washing with cold buffer, the filter was dried for 2 minutes in microwave, and Meltilex Scintillator sheet (Wallac) was melted on for 2 min.

Structure (SMILES)	Ki
CC(c1ccccc1)C1(C)CC(c2ccc3c(=O)n(-c4ccc(F)cc4)c(CCCCC(=O)O)nc3c2)=NO1 (single isomer, unassigned) [Example 42, 5-(3-(4-fluorophenyl)-7-(5-methyl-5-(1-phenylethyl)-4,5-dihydroisoxazol-3-yl)-4-oxo-3,4-dihydroquinazolin-2-yl)pentanoic acid]	≤ 10 nM
O=C(O)CCCCc1nc2cc(C3=NOC4(CC[C@H](c5ccccc5)C4)C3)ccc2c(=O)n1-c1ccc(F)cc1 (single isomer, unassigned) [Example 139]	≤ 10 nM
O=C(O)CCCCc1nc2cc(C3=NOC4(CC[C@@H](c5ccccc5)C4)C3)ccc2c(=O)n1-c1ccc(F)cc1 (single isomer, unassigned) [Example 141]	≤ 10 nM
O=C(O)CSc1nc2cc(-c3cscn3)ccc2c(=O)n1-c1ccc(F)cc1 [Example 1K]	10 to 50 nM
O=C(O)CCCCc1nc2cc(-c3cc(C4CC4)on3)ccc2c(=O)n1-c1ccc(F)cc1 [Example 5J]	10 to 50 nM
O=C(O)CCCCc1nc2cc(-c3ccon3)ccc2c(=O)n1-c1ccc(F)cc1 [Example 5K]	10 to 50 nM
O=C(O)CCCCc1nc2cc(-c3cc(C(F)(F)F)on3)ccc2c(=O)n1-c1ccc(F)cc1 [Example 5M]	≤ 10 nM
O=C(O)CCCCc1nc2cc(-c3cc(-c4ccc(F)cc4)on3)ccc2c(=O)n1-c1ccc(F)cc1 [Example 5N]	≤ 10 nM
O=C(O)CCCCc1nc2cc(-c3cc(C(=O)C4CC4)on3)ccc2c(=O)n1-c1ccc(F)cc1 [Example 5Q]	10 to 50 nM
Cc1cc(-c2ccc3c(=O)n(-c4ccc(F)cc4)c(CCCCC(=O)O)nc3c2)no1 [Example 5i]	10 to 50 nM
O=C(O)CCCCc1nc2cc(-c3cc(C4CC4)no3)ccc2c(=O)n1-c1ccc(F)cc1 [Example 8C, 5-(7-(3-Cyclopropylisoxazol-5-yl)-3-(4-fluorophenyl)-4-oxo-3,4-dihydroquinazolin-2-yl)pentanoic acid]	10 to 50 nM
Cc1cc(-c2ccc3c(=O)n(-c4ccc(F)cc4)c(CCCCC(=O)O)nc3c2)on1 [Example 8D]	≤ 10 nM
Cn1cc(-c2ccc3c(=O)n(-c4ccc(F)cc4)c(CCCCC(=O)O)nc3c2)nn1 [Example 9, 5-(3-(4-Fluorophenyl)-7-(1-methyl-1H-1,2,3-triazol-4-yl)-4-oxo-3,4-dihydroquinazolin-2-yl)pentanoic acid]	≤ 10 nM
Cc1cc(-c2ccc3c(=O)n(-c4ccc(C(F)(F)F)cc4)c(CCCCC(=O)O)nc3c2)no1 [Example 13, 5-{7-(5-Methylisoxazol-3-yl)-4-oxo-3-[4-(trifluoromethyl)phenyl]-3,4-dihydroquinazolin-2-yl}pentanoic acid]	≤ 10 nM
O=C(O)CCCCc1nc2cc(-c3noc(-c4ccncc4)n3)ccc2c(=O)n1-c1ccc(F)cc1 [Example 14, 5-{3-(4-fluorophenyl)-4-oxo-7-[5-(pyridin-4-0)-1,2,4-oxadiazol-3-yl]-3,4-dihydroquinazolin-2-yl}pentanoic acid]	10 to 50 nM and 17.2 nM
CC(C)(C)c1ccc(-c2nc(-c3ccc4c(=O)n(-c5ccc(F)cc5)c(CCCCC(=O)O)nc4c3)no2)cc1 [Example 14C]	10 to 50 nM
O=C(O)CCCCc1nc2cc(C3=NOC(c4ccccc4)C3)ccc2c(=O)n1-c1ccc(F)cc1 (stereo not drawn) [Example 15, 5-(3-(4-fluorophenyl)-4-oxo-7-(5-phenyl-4,5-dihydroisoxazol-3-yl)-3,4-dihydroquinazolin-2-yl)pentanoic acid]	10 to 50 nM

Results, then the compound that gave them:

Ki	Structure (SMILES)
10 to 50 nM	O=C(O)CCCCc1nc2cc(C3=NOC(c4nc5ccccc5o4)C3)ccc2c(=O)n1-c1ccc(F)cc1 (single isomer, unassigned) [Example 28D, 5-(7-(5-(benzo[d]oxazol-2-yl)-4,5-dihydroisoxazol-3-yl)-3-(4-fluorophenyl)-4-oxo-3,4-dihydroquinazolin-2-yl)pentanoic acid]
≤ 10 nM	O=C(O)CCCCc1nc2cc(C3=NOC(c4nc5ccccc5o4)C3)ccc2c(=O)n1-c1ccc(F)cc1 (single isomer, unassigned) [Example 28E, 5-(7-(5-(benzo[d]oxazol-2-yl)-4,5-dihydroisoxazol-3-yl)-3-(4-fluorophenyl)-4-oxo-3,4-dihydroquinazolin-2-yl)pentanoic acid]
≤ 10 nM	CC(c1ccccc1)C1(C)CC(c2ccc3c(=O)n(-c4ccc(F)cc4)c(CCCCC(=O)O)nc3c2)=NO1 (single isomer, unassigned) [Example 42E, 5-(3-(4-fluorophenyl)-7-(5-methyl-5-(1-phenylethyl)-4,5-dihydroisoxazol-3-yl)-4-oxo-3,4-dihydroquinazolin-2-yl)pentanoic acid]
≤ 10 nM	CC(c1ccccc1)C1(C)CC(c2ccc3c(=O)n(-c4ccc(F)cc4)c(CCCCC(=O)O)nc3c2)=NO1 (single isomer, unassigned) [Example 42F, 5-(3-(4-fluorophenyl)-7-(5-methyl-5-(1-phenylethyl)-4,5-dihydroisoxazol-3-yl)-4-oxo-3,4-dihydroquinazolin-2-yl)pentanoic acid]
10 to 50 nM	CC(c1ccccc1)C1(C)CC(c2ccc3c(=O)n(-c4ccc(F)cc4)c(CCCCC(=O)O)nc3c2)=NO1 (single isomer, unassigned) [Example 42G, 5-(3-(4-fluorophenyl)-7-(5-methyl-5-(1-phenylethyl)-4,5-dihydroisoxazol-3-yl)-4-oxo-3,4-dihydroquinazolin-2-yl)pentanoic acid]
10 to 50 nM	O=C(O)CCCCc1nc2cc(C3=NOC(c4ccccn4)C3)ccc2c(=O)n1-c1ccc(F)cc1 (stereo not drawn) [Example 15G]
10 to 50 nM	O=C(O)CCCCc1nc2cc(C3=NOC(c4ccncc4)C3)ccc2c(=O)n1-c1ccc(F)cc1 (stereo not drawn) [Example 15H]
≤ 10 nM	O=C(O)CCCCc1nc2cc(C3=NOC(c4ccccc4)C3)ccc2c(=O)n1-c1ccc(Cl)cc1 (stereo not drawn) [Example 15K]
≤ 10 nM	O=C(O)CCCCc1nc2cc(C3=NOC(c4ccccn4)C3)ccc2c(=O)n1-c1ccc(Cl)cc1 (stereo not drawn) [Example 15L]
≤ 10 nM	O=C(O)CCCCc1nc2cc(C3=NOC(c4ccncc4)C3)ccc2c(=O)n1-c1ccc(Cl)cc1 (stereo not drawn) [Example 15M]
≤ 10 nM	COc1cccc(C2CC(c3ccc4c(=O)n(-c5ccc(F)cc5)c(CCCCC(=O)O)nc4c3)=NO2)c1 (stereo not drawn) [Example 15N]
≤ 10 nM	O=C(O)CCCCc1nc2cc(C3=NOC(c4cccc(Cl)c4)C3)ccc2c(=O)n1-c1ccc(F)cc1 (stereo not drawn) [Example 15P]

Same assay, conditions: Ki, 3.0 nM [3H]PGD2, HEK-hCRTH2 membranes, 60 min, room temperature

Structure (SMILES)	Ki
CC1(c2nc3ccccc3o2)CC(c2ccc3c(=O)n(-c4ccc(F)cc4)c(CCCCC(=O)O)nc3c2)=NO1 (single isomer, unassigned) [Example 35, 5-(7-(5-(benzo[d]oxazol-2-yl)-5-methyl-4,5-dihydroisoxazol-3-yl)-3-(4-fluorophenyl)-4-oxo-3,4-dihydroquinazolin-2-yl)pentanoic acid]	≤ 10 nM
CC1(c2nc3ccccc3o2)CC(c2ccc3c(=O)n(-c4ccc(F)cc4)c(CCCCC(=O)O)nc3c2)=NO1 (single isomer, unassigned) [Example 35G, 5-(7-(5-(benzo[d]oxazol-2-yl)-5-methyl-4,5-dihydroisoxazol-3-yl)-3-(4-fluorophenyl)-4-oxo-3,4-dihydroquinazolin-2-yl)pentanoic acid]	10 to 50 nM
CC1(c2ccccc2)CC(c2ccc3c(=O)n(-c4ccc(F)cc4)c(CCCCC(=O)O)nc3c2)=NO1 (stereo not drawn) [Example 15E]	10 to 50 nM
CC1(c2ccccc2)CC(c2ccc3c(=O)n(-c4ccc(F)cc4)c(CCCCC(=O)O)nc3c2)=NO1 (stereo not drawn) [Example 15F]	≤ 10 nM
